The test system of one data set is HIF-1α. The experiment in a line: Real-time RT-PCR of HIF-1α transcripts. Type of data set: cell-based, human. The note with it: melanoma cell lines treated with BQ788; amplitude correlates with VEGF changes. As for the experimental part: Equal amounts of RNA from cells that were treated with BQ788 for 3 days were subjected to real-time RT-PCR analysis for the detection VEGF (A), HIF-1α (B) and Gravin (C) transcripts. Differences in expression levels are shown as x fold change and are statistically significant (p<0.05) unless a column in marked as non significant (N.S.). Sections of two representative tumors derived from a human melanoma cell line grown in nude mice and injected either with vehicle (D) or BQ788 (E) were stained with anti CD-31 to highlight blood vessels (brown staining, Lahav et al, 1999).
RNA was prepared from the different cell lines in different culture conditions using SV total RNA isolation kit (Promega) according to the manufacturer's protocol. For each sample RNA concentration was determined using the total RNA nano procedure of an Agilent bioanalyzer. A stock of SK-MEL-28 RNA aliquots was prepared containing 10, 20, 50, 100, 200, 500 and 1000 ng/12 μl for use as a standard curve and kept in −80° C. For the experimental unknown samples, a stock of 100 ng/12 μl RNA aliquots from each cell line and condition was prepared and stored at −80° C. […] A standard curve of Ct versus RNA quantity was established and accordingly the Ct in the unknown samples was correlated to quantity of transcript. […]
(Quantitative PCR measures a nucleic acid by following its amplification.)

Data set [1] concerns Me 191-I/GG (Primary) melanoma cells. The experiment in a line: MTS assay of cell viability after BQ788. The note with it: incubation with BQ788 for seven days; Primary line. Type of data set: cell-based. As for the experimental part:
Cells were cultured on a matrigel matrix that was histologically examined after two weeks (A-F). While the primary melanoma cells remained on top of the gel only (A and B), a fraction of the Cut-met cells invaded the gel (C and D) and the LN-met cells invaded the matrix extensively (E and F). Cell lysates of the three lines were subjected to western blot analysis using an anti-ETRB Ab (G) and an anti-tubulin Ab (H). Untreated, control (vehicle treated), and BQ788 treated cells were subjected to MTS assay to quantify any reduction in cell number. The mean values were calculated and plotted (I) as the percentage of the vehicle treated value+/− SEM.
Human melanoma cell lines Me191-1/GG (Primary), Me 190/DA (Cut-met), Me 275/EP (LN-met) were obtained from the Ludwig Institute (Epalinges, Switzerland) and SK-MEL-28 was obtained from the American Tissue Culture Collection (ATCC). […] After removal of the inserts, MTS solution was added to the well to quantify the cells that migrated through the insert and were attached to the bottom of the well by measuring the OD at 492 nm (Promega). […]
To address the relationship between the level of progression of human melanoma and responsiveness to BQ788 treatment, 3 cell lines that had been grown in culture for a restricted number of passages were used. […] This effect was quantified using the MTS assay.
On the technique in general: Tetrazolium assays rely on reduction of a dye to a coloured formazan, in cell work by metabolically active cells.

For the compound `CCCC[C@@H](NC(=O)[C@@H](Cc1cn(C(=O)OC)c2ccccc12)NC(=O)[C@H](CC(C)(C)C)NC(=O)N1[C@H](C)CCC[C@@H]1C)C(=O)O` [BQ788, N-cis-2,6-dimethylpiperidinocarbonyl-L-γ-methylleucyl-D-1-methoxycarbonyltrptophanyl-D-norleucine], the “HIF-1α RNA expression levels” value in the data set on HIF-1α was “small but significant changes”. The “reduction in cell number” value in data set [1] is 12%.

The record behind these values is patent US20060094676A1, “Compositions and methods for treating cancer using compositions comprising an inhibitor of endothelin receptor activity” (priority 2004, published 2006).
